Values joined by “and” are separate entries in the source; they are usually repeats but may differ in a detail not shown here. Equal values may be shown once. Values belong to the molecule of their own block, whether it stands above or below them.
Test system: 186277-243-T-J2-PDC complex spheroid growth, % test/control
Test: Anticancer human tumor 186277-243-T-J2-PDC patient-derived colon adenocarcinoma cell line growth inhibition [Asc]
Conditions: for viability, T/C: stronger effect = lower value
Method in brief: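 Concentration series start at each agent's clinical Cmax, or at 10 microM when none is established, and drop in half-log steps; agents are applied alone or together to complex spheroids built with HUVEC and hMSC.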

[1] = curve of first compound, second compound 0.01 µM
[2] = curve of first compound, second compound 0.0316 µM
[3] = curve of first compound, second compound 0.1 µM
[4] = curve of first compound, second compound 0.316 µM
[5] = curve of first compound, second compound 1 µM
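Also: spheroids exposed to agents for 7 days.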
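For viability, T/C in this document: 100% = DMSO vehicle control wells.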

- IC50 [1]: > 100 nM
- IC50 [2]: > 100 nM
- IC50 [3]: > 100 nM
- IC50 [4]: > 100 nM
- IC50 [5]: > 100 nM
Compound: NC1CCC(NC2CC2c2ccccc2)CC1 (configuration not stated) + CNC(C)C(=O)NC1CN(S(=O)(=O)c2cccc(S(=O)(=O)N3CCC4CCC(C(=O)NC(c5ccccc5)c5ccccc5)N4C(=O)C(NC(=O)C(C)NC)C3)c2)CCC2CCC(C(=O)NC(c3ccccc3)c3ccccc3)N2C1=O
- viability, T/C (second compound 0.01 µM, first compound 0.000316 µM): 116%
- viability, T/C (second compound 0.01 µM, first compound 0.001 µM): 105%
- viability, T/C (second compound 0.01 µM, first compound 0.00316 µM): 109%
- viability, T/C (second compound 0.01 µM, first compound 0.01 µM): 101%
- viability, T/C (second compound 0.01 µM, first compound 0.0316 µM): 109%
- viability, T/C (second compound 0.01 µM, first compound 0.1 µM): 106%
- viability, T/C (second compound 0.0316 µM, first compound 0.000316 µM): 117%
- viability, T/C (second compound 0.0316 µM, first compound 0.001 µM): 120%
- viability, T/C (second compound 0.0316 µM, first compound 0.00316 µM): 111%
- viability, T/C (second compound 0.0316 µM, first compound 0.01 µM): 114%
- viability, T/C (second compound 0.0316 µM, first compound 0.0316 µM): 102%
- viability, T/C (second compound 0.0316 µM, first compound 0.1 µM): 91.7%
- viability, T/C (second compound 0.1 µM, first compound 0.000316 µM): 107%
- viability, T/C (second compound 0.1 µM, first compound 0.001 µM): 115%
- viability, T/C (second compound 0.1 µM, first compound 0.00316 µM): 121%
- viability, T/C (second compound 0.1 µM, first compound 0.01 µM): 111%
- viability, T/C (second compound 0.1 µM, first compound 0.0316 µM): 121%
- viability, T/C (second compound 0.1 µM, first compound 0.1 µM): 109%
- viability, T/C (second compound 0.316 µM, first compound 0.000316 µM): 121%
- viability, T/C (second compound 0.316 µM, first compound 0.001 µM): 144%
- viability, T/C (second compound 0.316 µM, first compound 0.00316 µM): 115%
- viability, T/C (second compound 0.316 µM, first compound 0.01 µM): 106%
- viability, T/C (second compound 0.316 µM, first compound 0.0316 µM): 111%
- viability, T/C (second compound 0.316 µM, first compound 0.1 µM): 125%
- viability, T/C (second compound 1 µM, first compound 0.000316 µM): 109%
- viability, T/C (second compound 1 µM, first compound 0.001 µM): 119%
- viability, T/C (second compound 1 µM, first compound 0.00316 µM): 125%
- viability, T/C (second compound 1 µM, first compound 0.01 µM): 109%
- viability, T/C (second compound 1 µM, first compound 0.0316 µM): 123%
- viability, T/C (second compound 1 µM, first compound 0.1 µM): 121%

- IC50 (curve of compound): > 3000 nM
Compound: Cc1nc(N2CCC3(CC2)COC(C)C3N)c(CO)nc1Sc1ccnc(N)c1Cl (configuration not stated)
- viability, T/C (compound 0.00949 µM): 92.7% and 111% and 93.3%
- viability, T/C (compound 0.03 µM): 89.2% and 95.6% and 104%
- viability, T/C (compound 0.0949 µM): 81% and 91.5% and 95.9%
- viability, T/C (compound 0.3 µM): 102% and 103% and 96.9%
- viability, T/C (compound 0.949 µM): 102% and 114% and 95%
- viability, T/C (compound 3 µM): 109% (2×) and 93.4%

- IC50 [1]: 192 nM
- IC50 [2]: 204 nM
- IC50 [3]: 210 nM
- IC50 [4]: 194 nM
- IC50 [5]: 178 nM
Compound: NC(=O)C(=Cn1cnc(-c2cc(C(F)(F)F)cc(C(F)(F)F)c2)n1)c1cncnc1 + CNC(C)C(=O)NC1CN(S(=O)(=O)c2cccc(S(=O)(=O)N3CCC4CCC(C(=O)NC(c5ccccc5)c5ccccc5)N4C(=O)C(NC(=O)C(C)NC)C3)c2)CCC2CCC(C(=O)NC(c3ccccc3)c3ccccc3)N2C1=O
- viability, T/C (second compound 0.01 µM, first compound 0.000949 µM): 127%
- viability, T/C (second compound 0.01 µM, first compound 0.003 µM): 102%
- viability, T/C (second compound 0.01 µM, first compound 0.00949 µM): 98.9%
- viability, T/C (second compound 0.01 µM, first compound 0.03 µM): 128%
- viability, T/C (second compound 0.01 µM, first compound 0.0949 µM): 90.3%
- viability, T/C (second compound 0.01 µM, first compound 0.3 µM): 24.3%
- viability, T/C (second compound 0.0316 µM, first compound 0.000949 µM): 105%
- viability, T/C (second compound 0.0316 µM, first compound 0.003 µM): 113%
- viability, T/C (second compound 0.0316 µM, first compound 0.00949 µM): 93.8%
- viability, T/C (second compound 0.0316 µM, first compound 0.03 µM): 109%
- viability, T/C (second compound 0.0316 µM, first compound 0.0949 µM): 96.9%
- viability, T/C (second compound 0.0316 µM, first compound 0.3 µM): 26.4%
- viability, T/C (second compound 0.1 µM, first compound 0.000949 µM): 114%
- viability, T/C (second compound 0.1 µM, first compound 0.003 µM): 109%
- viability, T/C (second compound 0.1 µM, first compound 0.00949 µM): 113%
- viability, T/C (second compound 0.1 µM, first compound 0.03 µM): 118%
- viability, T/C (second compound 0.1 µM, first compound 0.0949 µM): 107%
- viability, T/C (second compound 0.1 µM, first compound 0.3 µM): 24.6%
- viability, T/C (second compound 0.316 µM, first compound 0.000949 µM): 103%
- viability, T/C (second compound 0.316 µM, first compound 0.003 µM): 107%
- viability, T/C (second compound 0.316 µM, first compound 0.00949 µM): 110%
- viability, T/C (second compound 0.316 µM, first compound 0.03 µM): 111%
- viability, T/C (second compound 0.316 µM, first compound 0.0949 µM): 97.8%
- viability, T/C (second compound 0.316 µM, first compound 0.3 µM): 20.3%
- viability, T/C (second compound 1 µM, first compound 0.000949 µM): 93.6%
- viability, T/C (second compound 1 µM, first compound 0.003 µM): 108%
- viability, T/C (second compound 1 µM, first compound 0.00949 µM): 113%
- viability, T/C (second compound 1 µM, first compound 0.03 µM): 111%
- viability, T/C (second compound 1 µM, first compound 0.0949 µM): 85.8%
- viability, T/C (second compound 1 µM, first compound 0.3 µM): 20.2%

- IC50 (curve of first compound, second compound 0.03 µM): > 10000 nM
- IC50 (curve of first compound, second compound 0.0949 µM): > 10000 nM
- IC50 (curve of first compound, second compound 0.3 µM): > 10000 nM
- IC50 (curve of first compound, second compound 0.949 µM): 596 nM
- IC50 (curve of first compound, second compound 3 µM): < 31.6 nM
Compound: O=C(c1cc(Cc2n[nH]c(=O)c3ccccc23)ccc1F)N1CCN(C(=O)C2CC2)CC1 + CCN1C(C(=O)NC23CCC(C(=O)O)(CC2)CC3)C(c2cccc(Cl)c2F)C2(C(=O)Nc3cc(Cl)ccc32)C12CCCCC2
- viability, T/C (second compound 0.03 µM, first compound 0.0316 µM): 120%
- viability, T/C (second compound 0.03 µM, first compound 0.1 µM): 135%
- viability, T/C (second compound 0.03 µM, first compound 0.316 µM): 102%
- viability, T/C (second compound 0.03 µM, first compound 1 µM): 99%
- viability, T/C (second compound 0.03 µM, first compound 3.16 µM): 94.2%
- viability, T/C (second compound 0.03 µM, first compound 10 µM): 82.4%
- viability, T/C (second compound 0.0949 µM, first compound 0.0316 µM): 90%
- viability, T/C (second compound 0.0949 µM, first compound 0.1 µM): 95.1%
- viability, T/C (second compound 0.0949 µM, first compound 0.316 µM): 93.9%
- viability, T/C (second compound 0.0949 µM, first compound 1 µM): 85.6%
- viability, T/C (second compound 0.0949 µM, first compound 3.16 µM): 91.6%
- viability, T/C (second compound 0.0949 µM, first compound 10 µM): 79.4%
- viability, T/C (second compound 0.3 µM, first compound 0.0316 µM): 77.8%
- viability, T/C (second compound 0.3 µM, first compound 0.1 µM): 90.8%
- viability, T/C (second compound 0.3 µM, first compound 0.316 µM): 72.1%
- viability, T/C (second compound 0.3 µM, first compound 1 µM): 67.2%
- viability, T/C (second compound 0.3 µM, first compound 3.16 µM): 62.1%
- viability, T/C (second compound 0.3 µM, first compound 10 µM): 60.8%
- viability, T/C (second compound 0.949 µM, first compound 0.0316 µM): 54.3%
- viability, T/C (second compound 0.949 µM, first compound 0.1 µM): 51.7%
- viability, T/C (second compound 0.949 µM, first compound 0.316 µM): 54.6%
- viability, T/C (second compound 0.949 µM, first compound 1 µM): 45.7%
- viability, T/C (second compound 0.949 µM, first compound 3.16 µM): 47%
- viability, T/C (second compound 0.949 µM, first compound 10 µM): 40.9%
- viability, T/C (second compound 3 µM, first compound 0.0316 µM): 31.8%
- viability, T/C (second compound 3 µM, first compound 0.1 µM): 33.5%
- viability, T/C (second compound 3 µM, first compound 0.316 µM): 29.9%
- viability, T/C (second compound 3 µM, first compound 1 µM): 32.4%
- viability, T/C (second compound 3 µM, first compound 3.16 µM): 30.2%
- viability, T/C (second compound 3 µM, first compound 10 µM): 26.5%

Reference: PubChem BioAssay AID1963426 (Molecular Pharmacology Branch, DTP, NCI, 2024)
